Assay results: the supplement of paper PMC10307832

Key:
Assay in all cases: relative viability (nuclei count vs DMSO), 5 days (fraction); higher = more cells survive
DM3189 = compound: C1CN(CCN1)C2=CC=C(C=C2)C3=CN4C(=C(C=N4)C5=CC=NC6=CC=CC=C56)N=C3 [DM3189]
Method in brief: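 Hoechst staining, done together with fixation and permeabilisation, marked nuclei for 4× imaging and MetaXpress counting. This followed 5 days without medium change after lung cancer cell lines, kept overnight at 37 °C in 1536-well plates, were pinned with five library-drug doses (not always all listed) spaced by √10 on vehicle-anchored plates. Viability is the ratio of treated-well to vehicle-well nuclei, expressed as a median across plates. Plates passed only at control CV below 25% with at least one doubling.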

DM3189 + Navitoclax = compound: C1CN(CCN1)C2=CC=C(C=C2)C3=CN4C(=C(C=N4)C5=CC=NC6=CC=CC=C56)N=C3 [DM3189] + CC1(C)CCC(c2ccc(Cl)cc2)=C(CN2CCN(c3ccc(C(=O)NS(=O)(=O)c4ccc(N[C@H](CCN5CCOCC5)CSc5ccccc5)c(S(=O)(=O)C(F)(F)F)c4)cc3)CC2)C1 [Navitoclax] (partner 0.5 µM)
Method in brief: (§1)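 Medians of duplicate plates are given as relative viability. That measure is the nuclei count in treated wells divided by the count in vehicle wells. Counts were taken on 4× images of lung cancer cell lines in 1536-well plates, 5 days after pin-tool dosing the day after seeding with one drug alone or a fixed anchor-drug dose plus five library-drug doses (not always all listed) in √10 steps.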

DM3189 + Lapatinib = compound: C1CN(CCN1)C2=CC=C(C=C2)C3=CN4C(=C(C=N4)C5=CC=NC6=CC=CC=C56)N=C3 [DM3189] + CS(=O)(=O)CCNCc1ccc(-c2ccc3ncnc(Nc4ccc(OCc5cccc(F)c5)c(Cl)c4)c3c2)o1 [Lapatinib] (partner 2 µM)
Method in brief: as §1

DM3189 + Dasatinib = compound: C1CN(CCN1)C2=CC=C(C=C2)C3=CN4C(=C(C=N4)C5=CC=NC6=CC=CC=C56)N=C3 [DM3189] + Cc1nc(Nc2ncc(C(=O)Nc3c(C)cccc3Cl)s2)cc(N2CCN(CCO)CC2)n1 [Dasatinib] (partner 0.075 µM)
Method in brief: as §1

DM3189 + Vorinostat = compound: C1CN(CCN1)C2=CC=C(C=C2)C3=CN4C(=C(C=N4)C5=CC=NC6=CC=CC=C56)N=C3 [DM3189] + O=C(CCCCCCC(=O)Nc1ccccc1)NO [Vorinostat] (partner 1 µM)
Method in brief: as §1

Row | Cell Line | relative viability (DM3189; 0.08 µM) | relative viability (DM3189; 0.253 µM) | relative viability (DM3189; 0.8 µM) | relative viability (DM3189; 2.53 µM) | relative viability (DM3189 + Navitoclax; first compound 0.08 µM) | relative viability (DM3189 + Navitoclax; first compound 0.253 µM) | relative viability (DM3189 + Navitoclax; first compound 0.8 µM) | relative viability (DM3189 + Navitoclax; first compound 2.53 µM) | relative viability (DM3189 + Lapatinib; first compound 0.08 µM) | relative viability (DM3189 + Lapatinib; first compound 0.253 µM) | relative viability (DM3189 + Lapatinib; first compound 0.8 µM) | relative viability (DM3189 + Lapatinib; first compound 2.53 µM) | relative viability (DM3189 + Dasatinib; first compound 0.08 µM) | relative viability (DM3189 + Dasatinib; first compound 0.253 µM) | relative viability (DM3189 + Dasatinib; first compound 0.8 µM) | relative viability (DM3189 + Dasatinib; first compound 2.53 µM) | relative viability (DM3189 + Vorinostat; first compound 0.08 µM) | relative viability (DM3189 + Vorinostat; first compound 0.253 µM) | relative viability (DM3189 + Vorinostat; first compound 0.8 µM) | relative viability (DM3189 + Vorinostat; first compound 2.53 µM)
1 | NCI-H2170 | 1.06 | 1.01 | 0.981 | 0.946 | 0.637 | 0.541 | 0.541 | 0.711 | 0.277 | 0.256 | 0.256 | 0.268 | 0.718 | 0.466 | 0.591 | 0.515 | 0.921 | 0.811 | 0.725 | 0.658
2 | NCI-H2009 | 1.1 | 1.03 | 0.893 | 1.05 | 1.17 | 1.19 | 1.06 | 1.23 | 1.13 | 0.888 | 0.684 | 0.916 | 0.287 | 0.267 | 0.263 | 0.244 | 0.705 | 0.647 | 0.733 | 0.888
3 | NCI-H520 | 1.05 | 0.79 | 0.844 | 0.683 | 1 | 0.728 | 0.752 | 0.628 | 0.902 | 0.679 | 0.644 | 0.42 | 0.24 | 0.219 | 0.258 | 0.197 | 0.712 | 0.633 | 0.57 | 0.292
4 | NCI-H1975 | 1.07 | 0.972 | 0.793 | 0.881 | 1.16 | 1.08 | 0.858 | 0.821 | 1.15 | 0.952 | 0.725 | 0.764 | 0.421 | 0.357 | 0.314 | 0.332 | 0.803 | 0.732 | 0.701 | 0.687
5 | SK-LU-1 | 1.03 | 0.793 | 0.814 | 0.749 | 0.686 | 0.595 | 0.564 | 0.397 | 0.864 | 0.718 | 0.583 | 0.459 | 0.143 | 0.109 | 0.104 | 0.136 | 0.742 | 0.749 | 0.728 | 0.598
6 | NCI-H1651 | 1.03 | 1.02 | 0.96 | 1.16 | 1.17 | 1.13 | 1.13 | 0.928 | 1.08 | 0.852 | 0.826 | 0.984 | 0.386 | 0.571 | 0.58 | 0.462 | 0.657 | 0.587 | 0.549 | 0.629
7 | HARA | 1.07 | 0.921 | 1.01 | 1.04 | 1.13 | 1.09 | 1.08 | 1.21 | 0.93 | 0.625 | 0.6 | 0.856 | 0.358 | 0.262 | 0.306 | 0.313 | 0.596 | 0.539 | 0.606 | 0.622
8 | H3255 | 1.18 | 0.979 | 0.899 | 1.13 | 0.685 | 0.577 | 0.559 | 0.5 | 0.259 | 0.267 | 0.224 | 0.277 | 0.553 | 0.303 | 0.442 | 0.32 | 1.11 | 0.826 | 0.845 | 0.89
9 | NCI-H460 | 1.01 | 0.949 | 0.855 | 1.12 | 1.2 | 1.18 | 0.996 | 0.904 | 1.45 | 1.03 | 0.825 | 0.235 | 0.728 | 0.532 | 0.47 | 0.666 | 1.02 | 0.725 | 0.654 | 0.862
10 | CAL-12T | 1.06 | 0.927 | 0.975 | 1.09 | 1.16 | 1.09 | 1.25 | 1.35 | 0.623 | 0.675 | 0.616 | 0.947 | 0.546 | 0.469 | 0.487 | 0.571 | 0.683 | 0.785 | 0.878 | 0.743
11 | NCI-H1437 | 1.05 | 0.995 | 0.989 | 1 | 0.994 | 1.1 | 1.06 | 1.05 | 0.793 | 0.767 | 0.765 | 0.852 | 0.434 | 0.395 | 0.384 | 0.385 | 0.917 | 0.916 | 0.843 | 1.05
12 | HOP-62 | 1.08 | 0.945 | 0.932 | 1.03 | 1.09 | 0.994 | 0.989 | 1.17 | 1.23 | 0.968 | 1.01 | 0.977 | 0.78 | 0.65 | 0.716 | 0.68 | 0.566 | 0.702 | 0.573 | 0.66
13 | EPLC-272H | 0.975 | 0.823 | 0.917 | 0.896 | 1.25 | 1.07 | 1.11 | 1.08 | 1.1 | 0.842 | 0.933 | 0.762 | 0.406 | 0.375 | 0.276 | 0.265 | 0.386 | 0.517 | 0.247 | 0.402
14 | COR-L 105 | 1.22 | 0.95 | 0.853 | 0.808 | 0.861 | 0.675 | 0.729 | 0.816 | 0.432 | 0.362 | 0.312 | 0.281 | 0.427 | 0.449 | 0.348 | 0.327 | 0.867 | 0.73 | 0.835 | 0.803
15 | HCC-366 | 1.05 | 0.905 | 0.925 | 0.989 | 0.955 | 1.06 | 0.842 | 1.04 | 0.839 | 0.93 | 0.681 | 0.931 | 0.943 | 0.759 |  | 0.846 | 0.363 | 0.285 | 0.191 | 0.41
